{
  "source": "patent US12071624B2",
  "about": "“Antisense oligonucleotide targeting ARL4C molecule, and nucleic acid drug using antisense oligonucleotide” (OSAKA UNIVERSITY, priority 2018, dated 2024)",
  "key": {"[1]": {"tested_on": "ARL4C mRNA", "experiment": "ARL4C mRNA amount by real-time PCR in HLE cells", "type": "cell-based, human", "conditions": "for effect of reducing the ARL4C mRNA amount at a low concentration: HLE cells transfected at 0.5 to 25 nM", "experimental": "(§1) HLE cells, HCT116 cells, and A549 cells were transfected with 25 to 50 nM ASO and 10 to 20 nM siRNA using Lipofectamine 3000 (Invitrogen, Carlsbad, CA, USA) or RNAiMAX (Invitrogen). Transfected cells were used in the experiments 36 to 48 hours after the end of the transfection.\n(§2) Cell migration assays and quantitative real-time PCR analyses were performed according to the methods reported by Fujii S et al. (Oncogene 2015; 34: 4834-44).\nHLE cells and HCT116 cells were transfected with the above-described seven types of ARL4C ASOs and the control ASO at 25 nM, and the ARL4C mRNA amounts were measured by real-time PCR; the results thereof are shown in (a) of FIG. 4. […] In order to optimize the effect of these three types of ARL4C ASOs, four bases were added to each of these three types of ARL4C ASOs, whereby ASO-1312, ASO-1450, and ASO-3223 each of which consisted of 19 bases were produced. With these six types of ARL4C ASOs (ASO-1316, ASO-1312, ASO-1454, ASO-1450, ASO-3225, and ASO-3223), the knockdown effect on ARL4C was further studied.\nHLE cells were transfected with ARL4C ASOs (ASO-1316, ASO-1312, ASO-1454, ASO-1450, ASO-3225, and ASO-3223) at 25 nM each, and the ARL4C mRNA amounts were measured by real-time PCR; the results are shown in (c) of FIG. 3. In addition, HLE cells were transfected with ARL4C ASOs (ASO-1316, ASO-1312, ASO-3225, and ASO-3223) at 0.5 to 25 nM each, and the ARL4C mRNA amounts were measured by real-time PCR; the results are shown in (b) of FIG. 4.\nHLE cells were treated with 10 μM PD184161 or 10 nM CTNNB1 siRNA (siRNA against CTNNB1), and the ARL4C mRNA amount was measured by real-time PCR; the results are shown in (a) of FIG. 5. In addition, HLE cells were treated with 10 nM CTNNB1 siRNA (siRNA against CTNNB1), and the ARL4C mRNA amount was measured by real-time PCR; the results thereof are shown in (a) of FIG. 6. PD184161 is a compound that inhibits MEK without knocking down […]."}, "[2]": {"tested_on": "neurolysin (NLN) mRNA", "experiment": "Off-target gene mRNA by real-time PCR in HLE cells (NLN)", "type": "cell-based, human", "conditions": "HLE cells transfected at 25 nM", "experimental": "(§3) Potential off-target genes in ARL4C ASO (hARL4C ASO-1316-AmNA [15-mer] (ARL4C ASO-1316) and hARL4C-3223-AmNA [19-mer] (ARL4C ASO-3223)) were identified by using database “Human Genomic plus Transcript (Human G+T)” (Build 2.7.1) as well as basic local alignment search tools (BLAST+programs) using MegaBlast algorithm.\nas §2\n(§4) Four genes of neurolysin (NLN), sapiens F-box and leucine-rich repeat protein 19 (FBXL19), keratin-associated protein 15-1 (KRTAP15-1), and sialic acid binding Ig-like lectin 6 (SIGLEC6) were identified as candidates for off-target genes of ASO-1316 and ASO-3223 by in silico analysis. HLE cells were transfected with ASO-1316 and ASO-3223 at 25 nM each, and mRNA amounts of NLN and FBXL19 were measured by real-time PCR; the results are shown in (d) of FIG. 3. […] In addition, KRTAP15-1 and SIGLEC6 were only slightly expressed in the HLE cells (data not shown)."}, "[3]": {"tested_on": "FBXL19 mRNA", "experiment": "Off-target gene mRNA by real-time PCR in HLE cells (FBXL19)", "type": "cell-based, human", "conditions": "HLE cells transfected at 25 nM", "experimental": "as §3, §2, §4"}, "[4]": {"tested_on": "HCT116 cells", "experiment": "Cell migration assay in HCT116 cells", "type": "cell-based", "conditions": "HCT116 cells transfected at 25 nM", "experimental": "as §1, §2\nIn addition, HCT116 cells were transfected with control ASO, ASO-1316 and ASO-3223 at 25 nM, and a cell migration assay was carried out; the results are shown in (e) of FIG. 3."}, "[5]": {"tested_on": "nuclear localization of YAP in A549 cells", "experiment": "Anti-YAP/TAZ antibody staining in A549 cells", "type": "cell-based, human", "conditions": "A549 cells transfected at 25 nM", "experimental": "as §1\n(§5) HLE cells or A549 cells were transfected with control ASO, ASO-1316, and ASO-3223 at 25 nM, and were stained with an anti-YAP/TAZ antibody; the results are shown in (c) of FIG. 6."}, "[6]": {"tested_on": "nuclear localization of YAP in HLE cells", "experiment": "Anti-YAP/TAZ antibody staining in HLE cells", "type": "cell-based", "conditions": "HLE cells transfected at 25 nM", "experimental": "as §1, §5"}, "[7]": {"tested_on": "HCT116/Luc cells", "experiment": "Metastatic tumor model, HCT116/Luc cells transplanted into spleen with liver metastasis", "type": "in vivo, mouse", "experimental": "HCT116/Luc cells (2.5×10^5 cells) were suspended in 100 μl of phosphate buffer solution (PBS), and were injected into the spleens of 8-week-old male nude mice (BALB/cAJcl-nu/nu, CLEA Japan, Inc.) under anesthesia. After 19 days had elapsed since the transplantation, ASO (50 μg/body; about 2.5 mg/kg) was subcutaneously administered twice a week. Mice were euthanized 47 days after the HCT116/Luc cell transplantation and were subjected to histological analysis.\nTumor growth analysis was performed by recording bioluminescence images at a frequency of once a week, in the following manner: VivoGlo luciferin (30 mg/ml) was administered intraperitoneally, and 10 minutes after the administration of VivoGlo luciferin, recording was carried out using an IVIS imaging system (Xenogen Corp., Alameda, CA, USA).\nIn a metastatic tumor model in which HCT116 cells were transplanted into the spleen and the tumor was caused to metastasize to the liver, influences of the subcutaneous administration of ARL4C ASO (ASO-1316 and ASO-3223) on the liver tumor was examined.\nIn an experiment in the metastatic tumor model, HCT116/Luc cells were injected into the spleens (day 0), luciferase signals were detected in the livers 19 days after the injection; on and after this day, control ASO, ASO-1316, and ASO-3223 were subcutaneously administered at a frequency of twice a week. When 19, 35 and 47 days had elapsed, the fluorescence of luciferase emitted from the liver tumors was observed, and when 47 days had elapsed, fluorescence intensities of luciferase emitted from the liver tumors were quantified with software of IVIS/Kodak; the results are shown in (a) of FIG. 10. […] In addition, when 47 days had elapsed since the transplantation of HCT116/Luc cells, the tumors formed in the livers were observed, and the tumors formed in the livers were immunostained with an anti-ARL4C antibody; the results are shown in (b) of FIG. 10. The tumors formed in the livers were immunostained with an anti-Ki-67 antibody when 47 days had elapsed since the transplantation of HCT116/Luc cells; the results are shown in (c) of FIG. 10."}},
  "note": "[AmNA] = 2',4'-bridged nucleic acid with N-methyl amide bridge (AmNA); d = 2'-deoxy (DNA)",
  "data": [
    {"substance": "ASO-1316: 15-mer AmNA/phosphorothioate ASO targeting ARL4C, base sequence SEQ ID NO: 1 gcatacctcaggtaa; Table 1 SEQ ID NO 13 (antisense GCATACCTCAGGTAA; AmNA and phosphorothioate modified, pattern not given here)", "values": [
      {"measurement": "ARL4C mRNA amount", "setting": "[1]; HLE cells transfected at 25 nM", "result": "reduced the ARL4C mRNA amount"},
      {"measurement": "effect of reducing the ARL4C mRNA amount at a low concentration", "setting": "[1]", "result": "high effects of reducing the ARL4C mRNA amount"},
      {"measurement": "NLN mRNA amount (off-target)", "setting": "[2]", "result": "did not significantly affect the expression"},
      {"measurement": "FBXL19 mRNA amount (off-target)", "setting": "[3]", "result": "did not significantly affect the expression"},
      {"measurement": "cell migration", "setting": "[4]", "result": "suppress the migration of HCT116 cells"},
      {"measurement": "nuclear localization of YAP", "setting": "[5]", "result": "inhibited the nuclear localization of YAP"},
      {"measurement": "nuclear localization of YAP", "setting": "[6]", "result": "did not affect the nuclear localization of YAP"},
      {"measurement": "growth of liver tumors (luciferase)", "setting": "[7]; 50 μg/body subcutaneously twice a week from day 19, until day 47", "result": "the growth of the tumors until 47 days after the injection could be suppressed"},
      {"measurement": "ARL4C expression level in liver tumor (immunostaining)", "setting": "[7]; day 47", "result": "decreased ARL4C expression levels"},
      {"measurement": "number of Ki-67 positive cells in liver tumor", "setting": "[7]; day 47", "result": "decreased numbers of Ki-67 positive cells"}
    ]},
    {"substance": "ASO-3223: 19-mer ARL4C ASO of Table 1, SEQ ID NO 55 (antisense NNNGGTTACAGTATTTNNC; sugars from the 5' end [AmNA]3 d13 [AmNA]2 d1, backbone, methylation of C and the base at N not given here; further chemistry not fully specified)", "values": [
      {"measurement": "effect of reducing the ARL4C mRNA amount at a low concentration", "setting": "[1]", "result": "high effects of reducing the ARL4C mRNA amount"},
      {"measurement": "NLN mRNA amount (off-target)", "setting": "[2]", "result": "did not significantly affect the expression"},
      {"measurement": "FBXL19 mRNA amount (off-target)", "setting": "[3]", "result": "did not significantly affect the expression"},
      {"measurement": "cell migration", "setting": "[4]", "result": "suppress the migration of HCT116 cells"},
      {"measurement": "nuclear localization of YAP", "setting": "[5]", "result": "inhibited the nuclear localization of YAP"},
      {"measurement": "nuclear localization of YAP", "setting": "[6]", "result": "did not affect the nuclear localization of YAP"},
      {"measurement": "antitumor effect in the metastatic tumor model", "setting": "[7]; subcutaneous twice a week from day 19", "result": "did not exert an antitumor effect"}
    ]}
  ]
}
